The test concerns the target T1, Caspase-1 (Homo sapiens) (UniProt P29466).
T1 sequence (whole entry): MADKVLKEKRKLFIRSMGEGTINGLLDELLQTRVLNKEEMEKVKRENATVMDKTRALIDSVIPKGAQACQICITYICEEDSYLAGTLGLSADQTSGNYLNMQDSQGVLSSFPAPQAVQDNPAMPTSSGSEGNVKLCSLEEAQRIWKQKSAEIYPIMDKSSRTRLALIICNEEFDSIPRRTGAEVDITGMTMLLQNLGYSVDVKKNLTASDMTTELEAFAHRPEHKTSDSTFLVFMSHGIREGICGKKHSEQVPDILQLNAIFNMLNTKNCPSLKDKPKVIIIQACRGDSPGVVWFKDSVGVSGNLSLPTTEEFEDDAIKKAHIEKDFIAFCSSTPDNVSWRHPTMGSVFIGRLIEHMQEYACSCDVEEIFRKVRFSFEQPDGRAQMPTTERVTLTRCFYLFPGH
The test is described as follows: Inhibitory activity against human IL-1 beta converting enzyme from monocytic THP-1 cell line, activity expressed as the logarithm of the second order rate constant for inactivation. The class given is cell-based.

In turn, `CC(C)[C@H](NC(=O)OCc1ccccc1)C(=O)N[C@@H](C)C(=O)N(C)[C@@H](CC(=O)O)C(=O)COc1cc(C(F)(F)F)nn1-c1ccccc1` registered an Activity of 2.48.

`CC(C)C[C@H](NC(=O)OCc1ccccc1)C(=O)N[C@@H](Cc1ccccc1)C(=O)COP(=O)(Oc1ccccc1)Oc1ccccc1` displayed an Activity of 2.7. Compound `CC(C)[C@H](NC(=O)OCc1ccccc1)C(=O)N(C)[C@@H](C)C(=O)N[C@@H](CC(=O)O)C(=O)COc1cc(C(F)(F)F)nn1-c1ccccc1` returned an Activity of 5.37. For `CC(=O)N[C@@H](Cc1ccc(O)cc1)C(=O)N[C@H](C(=O)N[C@@H](C)C(=O)N[C@@H](CC(=O)O)C(=O)COC(=O)c1c(C)cccc1C)C(C)C`, the Activity was 6.04. For the compound `O=C(O)CC(NC(=O)Cn1c(-c2cccs2)ncc(NC(=O)OCc2ccccc2)c1=O)C(=O)COC(=O)c1c(Cl)cccc1Cl` (centres undefined), the Activity was 5.43. Compound `CC(C)[C@H](NC(=O)CCc1ccccc1)C(=O)N[C@@H](C)C(=O)N[C@@H](CC(=O)O)C(=O)COC(=O)c1c(C(F)(F)F)cccc1C(F)(F)F` came in with an Activity of 5.95. As for `CC(C)[C@@H](C(=O)N[C@@H](C)C(=O)N[C@@H](CC(=O)O)C(=O)COc1cc(C(F)(F)F)nn1-c1ccccc1)N(C)C(=O)OCc1ccccc1`, the Activity came to 3.93. In the case of `CC(C)[C@H](NC(=O)OCc1ccccc1)C(=O)N1CCCCC1C(=O)N[C@H](CC(=O)O)C(=O)COc1cc(C(F)(F)F)nn1-c1ccccc1` (some centres undefined), the Activity amounted to 5.43. For the compound `CN(C)CCCCCC(=O)Nc1cnc(-c2ccc(F)cc2)n(CC(=O)NC(CC(=O)O)C(=O)COC(=O)c2c(Cl)cccc2Cl)c1=O` (centres undefined), the Activity worked out at 4.95.

`C=CCOC(=O)N[C@@H](CC(=O)O)C(=O)COC(=O)c1c(C(F)(F)F)cccc1C(F)(F)F` registered an Activity of 3.72. As to `Cc1cccc(C)c1C(=O)OCC(=O)[C@H](CC(=O)O)NC(=O)[C@H](C)NC(=O)[C@@H](NC(=O)CCc1ccccc1)C(C)C`, the Activity was determined as 6.08. Turning to `CC(C)[C@H](NC(=O)OCc1ccccc1)C(=O)N[C@@H](C)C(=O)N[C@@H](CC(=O)O)C(=O)COC(=O)c1c(Cl)cccc1Cl`, the Activity is 5.61. `O=C(O)C[C@H](NC(=O)OCc1ccccc1)C(=O)COC(=O)c1c(Cl)cccc1Cl`: the Activity stood at 3.85. As for `O=C(O)C[C@H](NC(=O)OCc1ccccc1)C(=O)COP(=O)(Oc1ccccc1)Oc1ccccc1`, the Activity was 4.07. For `C=CCOC(=O)N[C@@H](CC(=O)O)C(=O)COC(=O)c1ccc([N+](=O)[O-])cc1` the value was 1.79; for `O=C(O)CC(NC(=O)Cn1c(-c2ccc(F)cc2)ncc(NC(=O)OCc2ccccc2)c1=O)C(=O)COC(=O)c1c(Cl)cccc1Cl` (centres undefined), 5.43; for `C[C@H](NC(=O)[C@H](Cc1ccccc1)NC(=O)OCc1ccccc1)C(=O)COP(=O)(Oc1ccccc1)Oc1ccccc1`, 2.7. With `CC(C)[C@H](NC(=O)OCc1ccccc1)C(=O)N[C@@H](CC(=O)O)C(=O)COP(=O)(Oc1ccc(Cl)cc1)Oc1ccc(Cl)cc1`, the Activity was 4.89. `O=C(O)CC(NC(=O)Cn1c(-c2ccc(F)cc2)ncc(NC(=O)OCc2ccccc2)c1=O)C(=O)COP(=O)(Oc1ccccc1)Oc1ccccc1` (centres undefined) displayed an Activity of 5.16. Regarding `CC(C)[C@H](NC(=O)OCc1ccccc1)C(=O)N[C@@H](CC(=O)O)C(=O)COc1cc(C(F)(F)F)nn1-c1ccccc1`, the Activity was determined as 4.3.

As for `CC(C)[C@H](NC(=O)CCc1ccccc1)C(=O)N[C@@H](C)C(=O)N[C@@H](CC(=O)O)C(=O)COC(=O)c1ccccc1`, the Activity turned out to be 5.45. For `C[C@H](NC(=O)[C@H](Cc1ccccc1)NC(=O)OCc1ccccc1)C(=O)COC(=O)c1c(Cl)cccc1Cl` the value was 2.7; for `CC(=O)N[C@@H](Cc1ccc(O)cc1)C(=O)N[C@H](C(=O)N[C@@H](C)C(=O)N[C@@H](CC(=O)O)C(=O)COC(=O)c1c(C(F)(F)F)cccc1C(F)(F)F)C(C)C`, 5.98. As to `Nc1cnc(-c2ccc(F)cc2)n(CC(=O)NC(CC(=O)O)C(=O)COC(=O)c2c(Cl)cccc2Cl)c1=O` (centres undefined), the Activity came to 4.56. Take `CC(C)[C@H](NC(=O)CCc1ccccc1)C(=O)N[C@@H](C)C(=O)N[C@@H](CC(=O)O)C(=O)COC(=O)c1ccc([N+](=O)[O-])cc1`: the Activity worked out at 6.11. For `CC(C)[C@H](NC(=O)OCc1ccccc1)C(=O)N1CCC[C@H]1C(=O)N[C@@H](CC(=O)O)C(=O)COc1cc(C(F)(F)F)nn1-c1ccccc1` the value was 5.06. The value for `CC(C)[C@H](NC(=O)OCc1ccccc1)C(=O)N[C@@H](C)C(=O)N[C@@H](CC(=O)O)C(=O)COc1cc(C(F)(F)F)nn1-c1ccccc1` was 5.45. Compound `CC(C)[C@H](NC(=O)[C@@H]1CCCN1C(=O)OCc1ccccc1)C(=O)N[C@@H](CC(=O)O)C(=O)COc1cc(C(F)(F)F)nn1-c1ccccc1` had an Activity of 2.48. On to `O=C(O)CC(NC(=O)Cn1c(-c2ccc(F)cc2)ncc(NC(=O)NCc2ccccc2)c1=O)C(=O)COC(=O)c1c(Cl)cccc1Cl` (centres undefined), for which the Activity turned out to be 5.17. On to `O=C(O)CC(NC(=O)Cn1c(-c2ccc(F)cc2)ncc(NC(=O)OCc2ccccc2)c1=O)C(=O)COc1cc(C(F)(F)F)nn1-c1ccccc1` (centres undefined), for which the Activity was determined as 5.2. For `C[C@H](NC(=O)[C@H](Cc1ccccc1)NC(=O)OCc1ccccc1)C(=O)COc1cc(C(F)(F)F)nn1-c1ccccc1` the value was 2.7; for `O=C(O)CC(NC(=O)Cn1c(-c2ccc(F)cc2)ncc(NC(=O)c2ccco2)c1=O)C(=O)COC(=O)c1c(Cl)cccc1Cl` (centres undefined), 4.66; for `O=C(O)C[C@H](NC(=O)OCc1ccccc1)C(=O)COc1cc(C(F)(F)F)nn1-c1ccccc1`, 4.04. For the compound `C=CCOC(=O)N[C@@H](CC(=O)O)C(=O)COC(=O)c1c(C)cccc1C`, the Activity is 2.91. As for `O=C(O)CC(NC(=O)Cn1c(-c2cccnc2)ncc(NC(=O)OCc2ccccc2)c1=O)C(=O)COc1cc(C(F)(F)F)nn1-c1ccccc1` (centres undefined), the Activity was determined as 5.16. As to `CC(C)[C@H](NC(=O)CCc1ccccc1)C(=O)N[C@@H](C)C(=O)N[C@@H](CC(=O)O)C(=O)COC(=O)c1c(O)cccc1O`, the Activity worked out at 5.85. The value for `CC(C)[C@H](NC(=O)OCc1ccccc1)C(=O)N[C@@H](CC(=O)O)C(=O)COP(=O)(Oc1ccccc1)Oc1ccccc1` was 4.7; that for `CC(C)[C@H](NC(=O)OCc1ccccc1)C(=O)N[C@@H](C)C(=O)N[C@@H](CC(=O)O)C(=O)COP(=O)(Oc1ccccc1)Oc1ccccc1` was 5.07. For `C=CCOC(=O)N[C@@H](CC(=O)O)C(=O)COC(=O)c1c(O)cccc1O` the value was 3.43; for `CC(C)[C@H](NC(=O)CCc1ccccc1)C(=O)N[C@@H](C)C(=O)N[C@@H](CC(=O)O)C(=O)COC(=O)c1c(F)c(F)c(F)c(F)c1F`, 6.04. `Cc1ncc(NC(=O)OCc2ccccc2)c(=O)n1CC(=O)NC(CC(=O)O)C(=O)COc1cc(C(F)(F)F)nn1-c1ccccc1` (centres undefined): the Activity came to 4.98. `CC(C)[C@H](NC(=O)OCc1ccccc1)C(=O)N[C@@H](C)C(=O)N[C@@H](CC(=O)O)C(=O)COP(=O)(Oc1ccc(Cl)cc1)Oc1ccc(Cl)cc1` showed an Activity of 5.36.

Compound `C=CCOC(=O)N[C@@H](CC(=O)O)C(=O)COC(=O)c1c(F)c(F)c(F)c(F)c1F` yielded an Activity of 2.99.

As for `O=C(O)CC(NC(=O)Cn1c(-c2ccc(F)cc2)ncc(NS(=O)(=O)c2ccccc2)c1=O)C(=O)COC(=O)c1c(Cl)cccc1Cl` (centres undefined), the Activity was 4.95.
